Tests used:
swine adipose tissue = test: inhibition of lipogenesis (incorporation of radioactive glucose into lipid) in pig adipose tissue slices; assay type: cell-based, pig (swine); details: Sus scrofa, glucose-U-14C, 100 micrograms per milliliter, 37° C., 2 hours, vs control, read-out: Percent Inhibition of lipogenesis
Source text: (§1) The manner in which they cause this effect is not known with certainty; it is believed that they interfere with the synthesis of fatty acids in the tissues. Their effectiveness for this purpose has been ascertained by immersing samples of mammalian liver or adipose tissue in a liquid medium containing radioactive glucose and the test chemical for a period of time, then isolating the lipid from the treated tissue and determining the incorporation of the radioactive carbon into the lipid by means of scintillation counting techniques. These tests were conducted with both liver and adipose tissues, because in some animals the primary site of lipogenesis appears to be liver tissue, while in others it appears to be adipose tissue. The test animals were pigs, sheep, rabbits, cats and dogs.
Described in more detail, the tests were conducted according to the following general procedure:
Tissue slices (200 milligrams for liver; 150 milligrams for adipose tissue) were incubated, at 37° C. for 2 hours with shaking in 3 milliliters of Krebs-Ringer bicarbonate solution containing one-half the normal calcium ion concentration, 60 micromoles of glucose, 0.5 micro-Curie of glucose-U-^14 C, 300 microunits of insulin, and 5% dimethyl sulfoxide (DMSO). The test compounds were added as a solution or a suspension in DMSO and were present at a concentration of 100 micrograms per milliliter of the incubation mixture.
The incubation was terminated by addition of 0.25 milliliter of 1 N sulfuric acid. The incubation mixture was extracted with a total of 25 milliliters of chloroform:methanol (2:1, v/v). The extracts were washed according to Folch et al. (J. Biol. Chem., 226, 497-509, (1957)), air dried, and counted in a liquid scintillation counter with 15 milliliters of counting fluid (two parts toluene containing 0.4% w/v New England Nuclear Omnifluor: 1 part Triton X-100). The tests were conducted in triplicate and were accompanied by control tests in which all ingredients,proportions and conditions were the same except that no test compound was included. From the data obtained was calculated the percent inhibition of lipid synthesis by the test compound in each case.
Compound 2 was tested with respect to all of the animals. The other six compounds were tested only with respect to the pig.
From these and other tests, it was established that in pigs there is little lipogenic activity in the liver tissue. From these and other tests, it also has been established that swine adipose tissue utilizes glucose for lipogenesis, and to be the major site of fatty acid synthesis. The data obtained from the tests using adipose tissue and glucose are set out in Table 1, as the percent inhibition of lipogenesis compared to the results obtained in the control tests wherein only the test compound was omitted.

rabbit liver = test: inhibition of glucose incorporation in rabbit liver slices; assay type: cell-based; details: 100 micrograms per milliliter, 2 hours
Source text: as §1
(§2) Described in more detail, the tests were conducted according to the following general procedure: […]
(§3) The incubation was terminated by addition of 0.25 milliliter of 1 N sulfuric acid. […] The extracts were washed according to Folch et al. (J. Biol. Chem., 226, 497-509, (1957)), air dried, and counted in a liquid scintillation counter with 15 milliliters of counting fluid (two parts toluene containing 0.4% w/v New England Nuclear Omnifluor: 1 part Triton X-100). […] From the data obtained was calculated the percent inhibition of lipid synthesis by the test compound in each case. […]

[1] = test system: lipogenesis in swine adipose tissue; test: in vivo test of inhibition of lipogenesis in swine, compound in feed, adipose tissue biopsy samples; parameters: species or system pig (swine); details: young, growing pigs, in feed approximately 50 milligrams per kilogram per day for seven days
Procedure: The effect of compound 2 on inhibition of lipogenesis in swine was confirmed by an in vivo test in which Compound 2 was included in the feed given to young, growing pigs for seven days, at a dosage of approximately 50 milligrams of Compound 2 per kilogram of the pig's body weight per day. Adipose tissue biopsy samples were taken at days 0, 6, 7 and 13 (one week off the drug) and the effect of the test compound on lipogenesis was determined using tissue slices prepared from the biopsy samples, by the procedure used in the in vitro tests.

sheep adipose tissue = test: inhibition of glucose incorporation into lipids in sheep adipose tissue slices; assay type: cell-based; details: 100 micrograms per milliliter, 2 hours
Source text: as §1, §2, §3

dog adipose tissue = test: inhibition of glucose utilization in dog adipose tissue slices; assay type: cell-based; details: 100 micrograms per milliliter, 2 hours
Source text: as §1, §2, §3

cat adipose tissue = test: inhibition of glucose utilization in cat adipose tissue slices; assay type: cell-based; details: 100 micrograms per milliliter, 2 hours, result in words
Source text: as §1, §2, §3

cat liver = test: inhibition of glucose utilization in cat liver slices; assay type: cell-based; details: 100 micrograms per milliliter, 2 hours
Source text: as §1, §2, §3

sheep liver = test: inhibition of glucose incorporation into lipids in sheep liver slices; assay type: cell-based; details: 100 micrograms per milliliter, 2 hours
Source text: as §1, §2, §3

rabbit adipose tissue = test: inhibition of glucose incorporation in rabbit adipose tissue slices; assay type: cell-based; details: 100 micrograms per milliliter, 2 hours
Source text: as §1, §2, §3

Compound C=CCNC(=O)[C@@H]1C[C@H](O)c2cc(Cl)ccc2O1 (relative stereo) [Compound 7, 6-Chloro-4-hydroxy-N-(2-propenyl)-2H-1-benzopyran-2-carboxamide (cis)] has an inhibition at 100 µg/mL (swine adipose tissue) of 55%.
Work on C=CCNC(=O)C1CCc2cc(Cl)ccc2O1 (stereo not drawn) [Compound 1, 6-Chloro-3,4-dihydro-N-(2-propenyl)-2H-1-benzopyran-2-carboxamide] yielded an inhibition at 100 µg/mL (swine adipose tissue) of 59%.
In the case of C=CCNC(=O)C1COc2ccccc2C1 (stereo not drawn) [Compound 2, 3,4-Dihydro-N-(2-propenyl)-2H-1-benzopyran-3-carboxamide], the “inhibition of glucose incorporation into liver” value (rabbit liver) is reported as 9%, the symptom of toxicity [1] is reported as “No symptom of toxicity due to the test compound was noted” and the “effect on lipogenesis in vivo” value ([1]; day 13 (one week off the drug)) is reported as “significantly reduced lipogenesis”. For the same compound, the “inhibition of glucose incorporation in adipose tissue” value (sheep adipose tissue) was 36%, the “inhibition of glucose utilization in adipose tissue” value (dog adipose tissue) was 73% and the “inhibition of glucose utilization in adipose tissue” value (cat adipose tissue) was “did not inhibit glucose utilization”. For the same compound, the inhibition at 100 µg/mL (swine adipose tissue) was 83%, the “inhibition of glucose utilization in the liver” value (cat liver) was 26% and the “inhibition of glucose incorporation in the liver” value (sheep liver) was 32%. The “inhibition of glucose incorporation in adipose tissue” value (rabbit adipose tissue) was 22%.
With C=CCNC(=O)C1CCc2ccccc2O1 (stereo not drawn) [Compound 3, 3,4-Dihydro-N-(2-propenyl)-2H-1-benzopyran-2-carboxamide] the inhibition at 100 µg/mL (swine adipose tissue) was 72%.
Work on C=CCNC(=O)C1CCc2cc(-c3ccccc3)ccc2O1 (stereo not drawn) [Compound 4, 3,4-Dihydro-6-phenyl-N-(2-propenyl)-2H-1-benzopyran-2-carboxamide] yielded an inhibition at 100 µg/mL (swine adipose tissue) of 76%.
C=CCNC(=O)C1CCc2cc(C3CCCCC3)ccc2O1 (stereo not drawn) [Compound 5, 6-Cyclohexyl-3,4-dihydro-N-(2-propenyl)-2H-1-benzopyran-2-carboxamide] showed an inhibition at 100 µg/mL (swine adipose tissue) of 40%.
C=CCNC(=O)C1COc2ccc(Cl)cc2C1 (stereo not drawn) [Compound 6, 6-Chloro-3,4-dihydro-N-(2-propenyl)-2H-1-benzopyran-3-carboxamide] showed an inhibition at 100 µg/mL (swine adipose tissue) of 67%.
For C=CCNC(=O)C1CCc2cc(Oc3ccccc3)ccc2O1 (stereo not drawn) [Compound 8, 3,4-Dihydro-6-phenoxy-N-(2-propenyl)-2H-1-benzopyran-2-carboxamide], the inhibition at 100 µg/mL (swine adipose tissue) was 64%.
For C=CCNC(=O)C1CCc2cc(C)ccc2O1 (stereo not drawn) [Compound 9, 3,4-Dihydro-6-methyl-N-(2-propenyl)-2H-1-benzopyran-2-carboxamide], the inhibition at 100 µg/mL (swine adipose tissue) was 70%.
